Assay results from patent publication US7998989B2, “2-Imino-1,3-thiazoline-based compounds and T-type calcium channel inhibitors containing the same” (Korea Institute of Science and Technology, priority 2007, dated 2011).
Like-named read-outs stand apart in the source and are kept apart here.

Key:
[1] = molecular target: T1, α1G T-type calcium channel (Homo sapiens, UniProt O43497); assay: Assay for % inhibiting activity against T-type calcium channel using FDSS6000 (fluo-3 calcium imaging, KCl activation); type: cell-based
T1 construct: host or cells: HEK293
T1 sequence (O43497 whole entry): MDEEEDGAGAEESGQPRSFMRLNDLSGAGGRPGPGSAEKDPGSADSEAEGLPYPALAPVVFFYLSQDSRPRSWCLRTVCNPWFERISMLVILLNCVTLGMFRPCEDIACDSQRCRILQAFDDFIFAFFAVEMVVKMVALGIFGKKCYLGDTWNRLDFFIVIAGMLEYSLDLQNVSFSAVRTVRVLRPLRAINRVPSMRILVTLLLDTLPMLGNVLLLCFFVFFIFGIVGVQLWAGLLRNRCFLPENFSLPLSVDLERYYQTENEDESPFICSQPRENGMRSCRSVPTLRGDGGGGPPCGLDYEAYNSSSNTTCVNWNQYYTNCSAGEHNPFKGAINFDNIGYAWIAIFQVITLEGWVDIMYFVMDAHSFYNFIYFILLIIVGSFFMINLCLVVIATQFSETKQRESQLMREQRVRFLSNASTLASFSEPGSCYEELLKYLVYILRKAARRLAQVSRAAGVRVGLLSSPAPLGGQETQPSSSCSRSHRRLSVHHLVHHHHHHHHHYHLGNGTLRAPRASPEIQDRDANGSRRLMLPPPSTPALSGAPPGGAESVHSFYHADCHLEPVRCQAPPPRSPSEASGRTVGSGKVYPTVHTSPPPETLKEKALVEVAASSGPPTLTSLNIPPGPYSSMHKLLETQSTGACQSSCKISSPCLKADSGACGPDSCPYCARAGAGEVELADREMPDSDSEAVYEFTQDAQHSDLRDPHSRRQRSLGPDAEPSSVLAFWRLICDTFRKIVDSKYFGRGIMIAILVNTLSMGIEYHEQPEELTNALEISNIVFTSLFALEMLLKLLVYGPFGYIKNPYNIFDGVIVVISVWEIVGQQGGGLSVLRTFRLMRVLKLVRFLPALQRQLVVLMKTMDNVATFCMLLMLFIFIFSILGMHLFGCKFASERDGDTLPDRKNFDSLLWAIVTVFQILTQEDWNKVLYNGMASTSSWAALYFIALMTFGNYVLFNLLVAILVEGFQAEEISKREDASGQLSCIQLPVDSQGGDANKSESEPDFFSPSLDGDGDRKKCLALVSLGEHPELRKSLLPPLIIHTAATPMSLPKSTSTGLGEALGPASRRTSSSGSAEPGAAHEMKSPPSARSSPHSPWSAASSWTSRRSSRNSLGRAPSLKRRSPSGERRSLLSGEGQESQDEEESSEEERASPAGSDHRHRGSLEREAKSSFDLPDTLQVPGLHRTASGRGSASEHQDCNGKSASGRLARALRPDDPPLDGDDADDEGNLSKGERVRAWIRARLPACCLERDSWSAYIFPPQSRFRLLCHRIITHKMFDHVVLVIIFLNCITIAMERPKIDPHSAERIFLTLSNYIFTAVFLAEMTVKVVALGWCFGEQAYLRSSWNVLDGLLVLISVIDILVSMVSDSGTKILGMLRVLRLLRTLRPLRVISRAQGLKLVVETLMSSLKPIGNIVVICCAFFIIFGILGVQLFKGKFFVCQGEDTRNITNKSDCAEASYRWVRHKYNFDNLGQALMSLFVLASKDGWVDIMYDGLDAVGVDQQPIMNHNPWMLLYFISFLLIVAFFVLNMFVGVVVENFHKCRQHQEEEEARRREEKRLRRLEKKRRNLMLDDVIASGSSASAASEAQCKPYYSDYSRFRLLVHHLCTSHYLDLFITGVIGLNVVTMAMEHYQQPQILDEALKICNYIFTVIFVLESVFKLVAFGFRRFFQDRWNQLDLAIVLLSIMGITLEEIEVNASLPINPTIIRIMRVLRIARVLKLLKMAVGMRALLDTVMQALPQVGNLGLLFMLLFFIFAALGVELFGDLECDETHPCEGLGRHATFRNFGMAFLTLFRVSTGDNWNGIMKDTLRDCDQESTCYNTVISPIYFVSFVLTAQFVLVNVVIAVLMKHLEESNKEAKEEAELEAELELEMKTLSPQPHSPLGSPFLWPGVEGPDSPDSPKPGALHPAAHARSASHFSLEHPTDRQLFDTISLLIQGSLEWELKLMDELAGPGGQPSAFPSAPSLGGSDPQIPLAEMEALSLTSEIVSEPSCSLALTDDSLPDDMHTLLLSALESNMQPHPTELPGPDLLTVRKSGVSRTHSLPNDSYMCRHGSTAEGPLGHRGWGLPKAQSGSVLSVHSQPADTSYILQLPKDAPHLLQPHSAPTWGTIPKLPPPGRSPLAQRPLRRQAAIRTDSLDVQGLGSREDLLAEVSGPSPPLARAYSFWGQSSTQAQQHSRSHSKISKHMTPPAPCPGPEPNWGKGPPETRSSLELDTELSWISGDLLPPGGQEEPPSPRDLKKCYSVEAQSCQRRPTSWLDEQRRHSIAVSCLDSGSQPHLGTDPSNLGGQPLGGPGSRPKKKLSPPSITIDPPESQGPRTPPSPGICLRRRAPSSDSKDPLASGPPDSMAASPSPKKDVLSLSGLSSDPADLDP
Experimental: In the present invention, in order to examine an efficient inhibitor against the T-type calcium channel, a primary assay for T-type calcium channel inhibiting activity was conducted by a high-efficient assay using FDSS6000, wherein mammal HEK293 cell lines (originated from human kidney carcinoma cells) that specifically express α1G of the T-type calcium channel was used for primary assay. Through the primary assay, compounds that show meaningful inhibition effects were selected. The selected compounds were used in a second assay for T-type calcium channel inhibiting activity using an electrophysiological whole cell patch clamp method, wherein mammal HEK293 cell lines (originated from human kidney carcinoma cells) that specifically express α1G of the T-type calcium channel was used for the second assay. Mibefradil, which had been developed as a T-type calcium channel inhibitor, was used as a reference.
At 12-24 hours before being used for this assay, cells of HEK293 cell line (α1G cell line: KCTC 10519BP, Korean Collection for Type Cultures), which stably express α1G T-type calcium channel and Kir2.1, were sub-cultured in a poly-L-lysine treated 96-well plate with the density of 4×10^4 per well using a 96-well cell dispenser (Titertek). On the day of assay, the 96-well plate to which the cells were attached was washed three times with HEPES buffer solution (150 mM of NaCl, 5 mM of KCl, 1 mM of MgCl2, 2 mM of CaCl2, 10 mM of HEPES, 10 mM of glucose; pH 7.4) using a 96-well plate automatic washing device (Bio Tek), then reacted with HEPES buffer solution containing 5 μM fluo-3/AM and 0.001% Pluronic F-127 at room temperature for 1 hour, to label with fluorescent dye, and then further washed two times with HEPES buffer solution.
Thereafter, at 10 minutes before the measurement using device FDSS6000, washing with HEPES buffer solution containing 10 mM CaCl2 was conducted once more, and the final volume was adjusted to 81 μl. Besides the above 96-well plate containing the cells, two additional drug 96-well plates were provided, wherein the 96-well plates contained an inhibiting drug and KCl (final concentration: 75 mM) for activating the T-type calcium channel, respectively. Since most of cell-based HTS devices are equipped with a liquid application system for injection of drug, but have no liquid sucking system, the inhibiting drug to be tested and KCl were respectively provided at a five-times higher concentration in 10 mM CaCl2 HEPES buffer solution at the amount of 27 μl, diluted by five-times at the final cell plate volume of 135 μl, and then used in this test. The concrete method of measurement using FDSS6000 was as follows. After recording the reference value of 20 seconds, the change of intracellular Ca^2+ concentration that was induced by treatment of the inhibiting drug to be tested for 75 seconds followed by administration of KCl was measured, wherein the percentage (%) inhibition effect of the test drug, through estimating the area of ratio value of 340/380 in the control without treatment of the test drug, was 100%. As a reference drug, 10 μM mibefradil was used.
For accurate calcium imaging, the light source of 4 xenon lamps in FDSS6000 were radiated to selectively expose the cells to the excitation wavelength (340 nm and 380 nm) by a computer-controlled filter wheel. Data was obtained at intervals of 1.23 seconds. The emitter fluorescence light inflowed through a long-pass filter was obtained as an average 340/380 ratio value for each well in the 96-wells by using a CCD camera and a digital fluorescence analyzer in FDSS6000. All image data and analyses were obtained by using a FDSS6000-exclusive program from Hamamatsu Photonics.
The obtained results are shown in Table 2 (the results from the compounds according to the examples of the present invention) and Table 3 (the results from the compounds according to the comparative example where R6 is a phenyl group) [FDSS (% inhibition) 10 μM].

[2] = 10 μM, FDSS (% inhibition), comparative compounds where R6 is a phenyl group, read-out: FDSS
[3] = HEK293, 10 μM, HEK293 cells stably expressing α1G T-type calcium channel and Kir2.1, compounds of the examples, read-out: FDSS (% inhibition)/10uM

Row | SMILES | inhibition at 10 µM [1, 2] [%] | melting point [°C] | inhibition at 10 µM [1, 3] [%]
1 | CN1C(=Nc2ccc(Cl)cc2)SCC1CC(=O)Nc1ccc(Cl)cc1.Cl (centres unmarked) [KHG21652, [2-(4-chlorophenylimino)-3-methyl-1,3-thiazolidine-4-yl]-N-(4-chlorophenyl)-acetamide hydrochloride] | -7.7 | 239 to 242 | –
2 | CC(C)Oc1cccc(N=C2SCC(CC(=O)Nc3ccc(Cl)cc3)N2C)c1.Cl (centres unmarked) [KHG21653, [2-(3-isopropoxyphenylimino)-3-methyl-1,3-thiazolidine-4-yl]-N-(4-chlorophenyl)-acetamide hydrochloride] | -2.17 | 201 to 203 | –
3 | CCCCc1ccc(N=C2SCC(CC(=O)Nc3ccc(Cl)cc3)N2C)cc1.Cl (centres unmarked) [KHG21654, [2-(4-n-butylphenylimino)-3-methyl-1,3-thiazolidine-4-yl]-N-(4-chlorophenyl)-acetamide hydrochloride] | -1.13 | 239 to 241 | –
4 | CC(C)c1ccc(NC(=O)CC2CSC(=Nc3ccc(C#N)cc3)N2C)cc1.Cl (centres unmarked) [KHG21945, [2-(4-cyanophenylimino)-3-methyl-1,3-thiazolidine-4-yl]-N-(4-isopropylphenyl)-acetamide hydrochloride] | 7.71 | 234 to 235 | –
5 | CC(C)c1ccc(NC(=O)CC2CSC(=Nc3cccc(Br)c3)N2C)cc1.Cl (centres unmarked) [KHG21949, [2-(3-bromophenylimino)-3-methyl-1,3-thiazolidine-4-yl]-N-(4-isopropylphenyl)-acetamide hydrochloride] | 5.41 | 198 to 201 | –
6 | CN1C(=Nc2ccc(Br)cc2)SCC1CC(=O)Nc1ccc(Cl)cc1F.Cl (centres unmarked) [KHG23065, [2-(4-bromophenylimino)-3-methyl-1,3-thiazolidine-4-yl]-N-(4-chloro-2-fluorophenyl)-acetamide hydrochloride] | 3.57 | 239 to 240 | –
7 | CN1C(=Nc2ccc(C#N)cc2)SCC1CC(=O)Nc1ccc(Cl)cc1F.Cl (centres unmarked) [KHG23067, [2-(4-cyanophenylimino)-3-methyl-1,3-thiazolidine-4-yl]-N-(4-chloro-2-fluorophenyl)-acetamide hydrochloride] | -2.73 | 136 to 137 | –
8 | CN1C(=Nc2ccc(C(F)(F)F)cc2)SCC1CC(=O)Nc1ccc(Cl)cc1F.Cl (centres unmarked) [KHG23068, [2-(4-trifluoromethylphenylimino)-3-methyl-1,3-thiazolidine-4-yl]-N-(4-chloro-2-fluorophenyl)-acetamide hydrochloride] | 5.76 | 222 to 223 | –
9 | CC(C)c1ccc(N=C2SCC(CC(=O)Nc3ccc(Cl)cc3F)N2C)cc1.Cl (centres unmarked) [KHG23071, [2-(4-isopropylphenylimino)-3-methyl-1,3-thiazolidine-4-yl]-N-(4-chloro-2-fluorophenyl)-acetamide hydrochloride] | 15.5 | 237 to 238 | –
10 | COc1ccc(NC(=O)CC2CSC(=NC3CCCCC3)N2C)cc1Cl.Cl (centres unmarked) [KHG24070, (2-cyclohexylimino-3-methyl-1,3-thiazolidine-4-yl)-N-(3-chloro-4-methoxyphenyl)-acetamide hydrochloride] | – | 233.5 to 235 | 53

Now from value to compound:

Row | inhibition at 10 µM [1, 2] [%] | melting point [°C] | inhibition at 10 µM [1, 3] [%] | SMILES
11 | 2.59 | 238 to 242 | – | CN1C(=Nc2ccc(Oc3ccccc3)cc2)SCC1CC(=O)Nc1ccc(Cl)cc1.Cl (centres unmarked) [KHG21650, [2-(4-phenoxyphenylimino)-3-methyl-1,3-thiazolidine-4-yl]-N-(4-chlorophenyl)-acetamide hydrochloride]
12 | 4.68 | 228 | – | CN1C(=Nc2cccc([N+](=O)[O-])c2)SCC1CC(=O)Nc1ccc(Cl)cc1.Cl (centres unmarked) [KHG21655, [2-(3-nitrophenylimino)-3-methyl-1,3-thiazolidine-4-yl]-N-(4-chlorophenyl)-acetamide hydrochloride]
13 | -2.56 | 238 to 242.8 | – | CC(C)c1ccc(NC(=O)CC2CSC(=Nc3ccc(C(F)(F)F)cc3)N2C)cc1.Cl (centres unmarked) [KHG21943, [2-(4-trifluoromethylphenylimino)-3-methyl-1,3-thiazolidine-4-yl]-N-(4-isopropylphenyl)-acetamide hydrochloride]
14 | 5.89 | 190 to 194 | – | CC(C)Oc1cc(N=C2SCC(CC(=O)Nc3ccc(C(C)C)cc3)N2C)c(F)cc1Cl.Cl (centres unmarked) [KHG21944, [2-(4-chloro-5-isopropoxy-2-fluorophenylimino)-3-methyl-1,3-thiazolidine-4-yl]-N-(4-isopropylphenyl)-acetamide hydrochloride]
15 | 23.9 | 239 to 241 | – | CC(C)c1ccc(NC(=O)CC2CSC(=Nc3ccc(F)c(Cl)c3)N2C)cc1.Cl (centres unmarked) [KHG21947, [2-(3-chloro-4-fluorophenylimino)-3-methyl-1,3-thiazolidine-4-yl]-N-(4-isopropylphenyl)-acetamide hydrochloride]
16 | 7.37 | 239 to 240 | – | CN1C(=Nc2ccc(Cl)cc2)SCC1CC(=O)Nc1ccc(Cl)cc1F.Cl (centres unmarked) [KHG23064, [2-(4-chlorophenylimino)-3-methyl-1,3-thiazolidine-4-yl]-N-(4-chloro-2-fluorophenyl)-acetamide hydrochloride]
17 | 1.3 | 223 to 224 | – | CCCCc1ccc(N=C2SCC(CC(=O)Nc3ccc(Cl)cc3F)N2C)cc1.Cl (centres unmarked) [KHG23066, [2-(4-n-butylphenylimino)-3-methyl-1,3-thiazolidine-4-yl]-N-(4-chloro-2-fluorophenyl)-acetamide hydrochloride]
18 | 4.33 | 243 to 245 | – | Cc1ccc(N=C2SCC(CC(=O)Nc3ccc(Cl)cc3F)N2C)cc1.Cl (centres unmarked) [KHG23069, [2-(4-methylphenylimino)-3-methyl-1,3-thiazolidine-4-yl]-N-(4-chloro-2-fluorophenyl)-acetamide hydrochloride]
19 | 7.44 | 236 to 237 | – | CN1C(=Nc2ccc(OC(F)(F)F)cc2)SCC1CC(=O)Nc1ccc(Cl)cc1F.Cl (centres unmarked) [KHG23070, [2-(4-trifluoromethoxyphenylimino)-3-methyl-1,3-thiazolidine-4-yl]-N-(4-chloro-2-fluorophenyl)-acetamide hydrochloride]
20 | 29.4 | 242 | – | CCc1ccc(N=C2SCC(CC(=O)Nc3ccc(Cl)cc3F)N2C)cc1.Cl (centres unmarked) [KHG23072, [2-(4-ethylphenylimino)-3-methyl-1,3-thiazolidine-4-yl]-N-(4-chloro-2-fluorophenyl)-acetamide hydrochloride]
21 | 28.3 | 222 to 223 | – | CN1C(=Nc2ccc(-c3ccccc3)cc2)SCC1CC(=O)Nc1ccc(Cl)cc1F.Cl (centres unmarked) [KHG23073, [2-(4-phenylphenylimino)-3-methyl-1,3-thiazolidine-4-yl]-N-(4-chloro-2-fluorophenyl)-acetamide hydrochloride]
22 | – | 146 | 52.1 | Cc1cc(Cl)c(NC(=O)CC2CSC(=NC3CCCCC3)N2C)cc1Cl.Cl (centres unmarked) [KHG24071, (2-cyclohexylimino-3-methyl-1,3-thiazolidine-4-yl)-N-(2,5-dichloro-4-methylphenyl)-acetamide hydrochloride]
